Data taken from patent US5202456A, “Compounds for inhibition of protein methylation” (The President and Fellows of Harvard College, priority 1991, dated 1993).
Entries after “also recorded” stand apart in the source; their conditions may differ. Where two headings read alike, the source gives them in different places. Each block holds one compound with its values, some of them ahead of it.

Assays:
[1] = target: T1, ROS methyltransferase (bovine retinal rod outer segment S-adenosyl-L-methionine-dependent methyltransferase) (Bos taurus, UniProt A0AAA9SD88); assay: ROS methyltransferase assay: compounds as substrates (Km) or inhibitors (Ki) of AFC methylation; assay type: biochemical; details: for substrate activity for ROS methyltransferase / competitive inhibition of AFC methylation / inhibition of methyltransferase activity towards AFC: in words
T1 construct: utilizing ROS membranes as the source of methyltransferase enzyme; tissue Wanda Lawson Co., Lincoln, Nebr; (frozen bovine retinas); host or cells: bovine retinal rod outer segment (ROS) membranes
Method: Standard assays may be used to determine Km for substrates and Ki for inhibitors. […] The values of Ki and Km are calculated from kinetic assays by conventional means (Fersht, Enzyme Structure and Mechanism, W. H. Freeman and Co., New York, 1984). Examples are provided below to illustrate suitable assays, and are not intended to limit the invention.
One suitable assay of methylation functions uses bovine retinal rod outer segment (ROS) methyltransferase and a natural substrate, transducin. […] Another suitable assay uses N-acetyl-S-farnesylcysteine as a substrate for ROS methyltransferase.
The bovine retinal transducin γ subunit has a carboxyl-terminal --CAAX motif and undergoes a farnesylation reaction similar to that observed on ras (Lai et al., Proc. Natl. Acad. Sci. USA 87:7673, 1990; Fukada et al., Nature 346:658, 1990).
(§1) Frozen bovine retinas (Wanda Lawson Co., Lincoln, Nebr.) were used to prepare ROS membranes depleted of peripheral proteins using a modification of the procedure of Wessling-Resnick et al. (J. Biol. Chem. 262:3697, 1987). Briefly, ROS membranes were washed with low ionic strength buffer and 100μM GTP, resuspended in 50 mM Hepes-Na (pH 7.4), 100 mM NaCl, 5 mM MgCl2, 0.1 mM phenylmethylsulfonyl fluoride, 0.1 mM dithiothreitol (buffer A) and stored in small aliquots at -80° C. until used. Transducin was isolated by disrupting ROS membranes by passing the membranes through a narrow needle and washing the disrupted membranes in a series of centrifugation steps as described by Wessling-Resnick et al. (J. Biol. Chem. 262:3697, 1987). Finally transducin was eluted from the membranes with 100μM GTP. The transducin-enriched supernatant was concentrated using Centriprep (Amicon).
(§2) For initial studies, the reaction mixture contained 20 μCi of S-adenosyl-[methyl-^3 H] methionine ([^3 H]SAM) (2.34 μM, Amersham) and an aliquot of ROS (120μg of total protein) or of washed ROS membranes (80μg of total protein) in 100 μl of buffer A. Purified transducin was added to this mixture to a concentration of 5 μM. AFC, N-acetylcysteine, or AFC methylester was added in 2 μl of dimethyl sulfoxide to give a final concentration of 20 μM, and the reaction was carried out at 37° C.
The above-described methyltransferase assay was used to analyze the analogs described above.

[2] = test system: methyltransferase activity in HL-60 cells; assay: Methylation of AFC by activity present in HL-60 cell membrane; assay type: biochemical; details: in words
HL-60 cells = assay: Inhibition of HL-60 cell proliferation (trypan blue dye exclusion count); assay type: cell-based; details: FIG. 2; in words
Method: FTA, FTP, AFHC and AFC were tested for their ability to inhibit cell growth as follows.
HL-60 cells (ATCC CCL 240, American Type Culture Collection, Rockville, Md.) which harbor an activated ras gene were grown in RPMI medium (Gibco/BRL, Bethesda, Md.) supplemented with 10-15% fetal calf serum, L-glutamine, penicillin and streptomycin. These cells were treated with various concentrations of FTA, FTP, AFHC, or AFC dissolved in dimethyl sulfoxide (DMSO) or with DMSO only (In all experiments the final DMSO concentration was 1% or less). Treated ans untreated cells were incubated under standard culture conditions for several days. Cells were counted manually at 24 hour intervals using a trypan blue dye exclusion assay which counts only live, intact cells.

[3] = target: T2, methyltransferase activity present in ROS membrane (Bos taurus, UniProt A0AAA9SD88); assay: In vitro [3H]SAM methylation of proteins by ROS membrane methyltransferase; assay type: biochemical, bovine; details: in words
T2 construct: substrates transducin gamma, 23-29 kDa small G proteins, AFC
Method: as §1, §2
Incubation of bovine ROS with [^3 H]SAM results in the radioactive labeling of polypeptides with apparent molecular masses of 88, 60, 23-29, and 6 kDa. The methylation of the 88-kDa protein (α subunit of retinal phosphodiesterase) and of the 23- to 29-kDa polypeptides has already been reported (Swanson et al., J. Biol. Chem. 258:10599, 1983; Ota et al., J. Biol. Chem. 264:12879, 1989). The 6-kDa polypeptide coincides with Tγ in SDS/polyacrylamide gels. Moreover, incubation of purified transducin with extensively washed ROS and [^3 H]SAM results in the labeling of the 6-kDa polypeptide and the membrane-associated 23- to 29-kDa proteins. […]

cell growth = details: Maltese et al., 1985; cited from earlier work
[4] = test system: cellular synthesis of mevalonic acid; details: in words; cited from earlier work
ras proteins = details: Hancock et al., 1989; cited from earlier work
[5] = Table 1, conventional inhibitors, read-out: Ki
[6] = Table 1, substrates, read-out: Km
[7] = ROS membranes as source of enzyme, read-out: KM for methylation
[8] = calculated, read-out: Ki for inhibition of AFC methylation

T2 sequence (A0AAA9SD88 1-284): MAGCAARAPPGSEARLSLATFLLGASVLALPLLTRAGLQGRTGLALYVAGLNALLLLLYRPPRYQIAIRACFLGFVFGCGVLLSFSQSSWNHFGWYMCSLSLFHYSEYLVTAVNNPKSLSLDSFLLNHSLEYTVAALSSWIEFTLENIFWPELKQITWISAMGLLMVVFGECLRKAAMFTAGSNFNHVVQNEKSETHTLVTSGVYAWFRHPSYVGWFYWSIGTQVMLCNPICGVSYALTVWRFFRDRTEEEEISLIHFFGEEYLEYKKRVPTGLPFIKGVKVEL
T1 sequence (A0AAA9SD88 1-284): as above

Compound: CC(C)=CCC/C(C)=C/CC/C(C)=C/C[Se]CCC(=O)O
- Ki [1]: 29 µM

Compound: CC(=O)NC(C[Se]C/C=C(\C)CC/C=C(\C)CCC=C(C)C)C(=O)O (racemic) [N-acetyl-Se-farnesyl-D,L-cysteine]
- Km ([1]; Table 1, substrates): 51 µM

Compound: CC(C)=CCC/C(C)=C/CC/C(C)=C/CSCC[N+](=O)[O-] [2-farnesylthio-1-nitroethane]
- status as conventional inhibitor (in place of Ki) ([1]; Table 1): inhibitor

Compound: CSC(CSC/C=C(\C)CC/C=C(\C)CCC=C(C)C)=NO [2-farnesylthio-S-methyl]
- status as conventional inhibitor (in place of Ki) ([1]; Table 1): inhibitor

Compound: CC(C)=CCC/C(C)=C/CC/C(C)=C/C[S+]([O-])CC(=O)O (stereo not drawn) [2-farnesylthioacetic acid sulfoxide]
- Ki [1, 5]: < 10 µM

Compound: CC(C)=CCC/C(C)=C/CC/C(C)=C/CSCC(C)C(=O)O (stereo not drawn) [2-methyl-3-farnesylthiopropionic acid]
- Km [1, 6]: 21 µM

Compound: CC(C)=CCC/C(C)=C/CC/C(C)=C/COCCC(=O)O [3-farnesyloxypropionic acid]
- Km [1, 6]: 26 µM

Compound: C=C(CSC/C=C(\C)CC/C=C(\C)CCC=C(C)C)C(=O)O [3-farnesylthio-2-methylenepropionic acid]
- status as substrate (in place of Km) ([1]; Table 1): substrate

Compound: CC(C)=CCC/C(C)=C/CC/C(C)=C/CSCC(C)[N+](=O)[O-] (stereo not drawn) [3-farnesylthio-2-nitropropane]
- status as conventional inhibitor (in place of Ki) ([1]; Table 1): inhibitor

Compound: CC(C)=CCC/C(C)=C/CC/C(C)=C/CS/C=C\C(=O)O [3-farnesylthio-cis-acrylic acid]
- Ki [1, 5]: 40 µM

Compound: CC(=O)N[C@@H](CSCCC(C)CCCC(C)CCCC(C)C)C(=O)O (stereo partly drawn) [ATC, N-acetyl-S-(3,7,11-trimethyldodecanyl)-L-cysteine]
- substrate activity for ROS methyltransferase [1]: inactive as a substrate; also recorded: lack of activity

Compound: CC[C@H](C)C(=O)O[C@H]1C[C@@H](C)C=C2C=C[C@H](C)[C@H](CC[C@@H]3C[C@@H](O)CC(=O)O3)[C@H]21 [Mevinolin]
- cell growth block (cell growth): blocked in cell growth in the G1 phase and the G2/M phase
- cellular synthesis of mevalonic acid [4]: inhibits
- post-translational processing of ras proteins (ras proteins): affects
- ras membrane localization (ras proteins): interferes

Compound: CC(C)=CCC/C(C)=C/CC/C(C)=C/CSCC(N)C(=O)O (stereo not drawn) [S-farnesylcysteine]
- status as conventional inhibitor (in place of Ki) ([1]; Table 1): inhibitor

Now from value to compound, other results behind:

- status as conventional inhibitor (in place of Ki) ([1]; Table 1): inhibitor
Compound: 3-farnesylthiocyclohexanecarboxylic acid

- Ki [1, 5]: 37 µM
Compound: CC(C)=CCC/C(C)=C/CC/C(C)=C/CS/C=C/C(=O)O [3-farnesylthio-trans-acrylic acid]

- Ki [1, 5]: 30 to 40 µM
Compound: CC(C)=CCC/C(C)=C/CC/C(C)=C/CSC(C)CC(=O)O (stereo not drawn) [3-farnesylthiobutyric acid]

- status as conventional inhibitor (in place of Ki) ([1]; Table 1): inhibitor
Compound: CCCCCCC(CC(=O)O)SC/C=C(\C)CC/C=C(\C)CCC=C(C)C (stereo not drawn) [3-farnesylthiononanoic acid]

- status as conventional inhibitor (in place of Ki) ([1]; Table 1): inhibitor
Compound: CC(C)=CCC/C(C)=C/CC/C(C)=C/CSCCC(N)=O [3-farnesylthiopropionamide]

- status as conventional inhibitor (in place of Ki) ([1]; Table 1): inhibitor
Compound: CC(C)=CCC/C(C)=C/CC/C(C)=C/CSCCC#N [3-farnesylthiopropionitrile]

- Km [1, 7]: 23 µM
- Km [1, 6]: 23 µM
- incorporation of label by [3H]SAM into proteins ([3]; ROS): reduced incorporation of label
Compound: CC(=O)N[C@@H](CSC/C=C(\C)CC/C=C(\C)CCC=C(C)C)C(=O)O [AFC, N-acetyl-S-farnesylcysteine]
- methylation by activity in membrane of HL-60 cells [2]: can be methylated
- substrate activity for ROS methyltransferase [1]: acts as a substrate; also recorded: serves as a substrate; also recorded: can serve as a substrate
- inhibition of proliferation of HL-60 cells (HL-60 cells): can inhibit proliferation

- Ki [1, 5]: 13.2 µM
- Ki [1, 8]: 11.6 µM
- methylation of AFCS ([1]; even at 500 μM): not methylated
- competitive inhibition of AFC methylation [1]: potent competitive inhibitors
Compound: CC(=O)N[C@@H](C[S+]([O-])C/C=C(\C)CC/C=C(\C)CCC=C(C)C)C(=O)O (stereo partly drawn) [AFCS, N-acetyl-S-oxo-farnesylcysteine]
- substrate activity for ROS methyltransferase [1]: lack of activity; also recorded: not substrates

- Ki [1, 5]: 36.3 µM
- Ki [1, 8]: 30.2 µM
- competitive inhibition of AFC methylation [1]: potent competitive inhibitors
Compound: CC(=O)N[C@@H](CCSC/C=C(\C)CC/C=C(\C)CCC=C(C)C)C(=O)O [AFHC, N-acetyl-S-farnesylhomocysteine]
- substrate activity for ROS methyltransferase [1]: not a substrate; also recorded: not substrates
- inhibition of proliferation of HL-60 cells (HL-60 cells): can inhibit proliferation

- status as substrate (in place of Km) ([1]; Table 1): substrate
Compound: CC(=O)N[C@@H](CSC/C=C(\C)CCC=C(C)C)C(=O)O [AGC, N-acetyl-S-geranyl-L-cysteine]
- substrate activity for ROS methyltransferase [1]: exceedingly weak substrate; also recorded: marginal activity

- Km ([1]; AFC system, ROS membranes, read-out: apparent KM): 2 µM
Compound: C[S+](CC[C@H](N)C(=O)O)C[C@H]1O[C@@H](n2cnc3c(N)ncnc32)[C@H](O)[C@@H]1O (stereo partly drawn) [AdoMet, S-adenosyl-L-methionine, reference compound]

- Km [1, 7]: 13.7 µM
- Km [1, 6]: 14 µM
Compound: CC(C)=CCC/C(C)=C/CC/C(C)=C/CSCCC(=O)O [FTP, 3-farnesylthiopropionic acid]
- substrate activity for ROS methyltransferase [1]: active substrate; also recorded: also a substrate
- inhibition of proliferation of HL-60 cells (HL-60 cells): can inhibit proliferation

- Km [1, 6]: 42 µM
Compound: CC(=O)N[C@H](CSC/C=C(\C)CC/C=C(\C)CCC=C(C)C)C(=O)O [N-acetyl-S-farnesyl-D-cysteine]

- substrate activity for ROS methyltransferase [1]: not a substrate
Compound: CC(=O)N[C@@H](CS)C(=O)O [N-acetylcysteine, reference compound]

- status as substrate (in place of Km) ([1]; Table 1): substrate
Compound: CC(C)=CCC/C(C)=C/CC/C(C)=C/CSC[C@H](NC(=O)c1ccccc1)C(=O)O [N-benzoyl-S-farnesylcysteine]

- inhibition of methyltransferase activity towards AFC [1]: inhibited
- inhibition of methyltransferase activity present in ROS membrane [3]: inhibited
Compound: Nc1ncnc2c1ncn2[C@@H]1O[C@H](CSCC[C@H](N)C(=O)O)[C@@H](O)[C@H]1O [SAH, reference compound]

- inhibition of methyltransferase activity towards AFC [1]: inhibited
- inhibition of methyltransferase activity present in ROS membrane [3]: inhibited
Compound: Nc1ncnc2c1ncn2[C@@H]1O[C@H](C[C@@H](N)CC[C@H](N)C(=O)O)[C@@H](O)[C@H]1O [sinefungin, reference compound]

- status as substrate (in place of Km) ([1]; Table 1): substrate
Compound: N-acetylgeranylgeranylcysteine

- status as conventional inhibitor (in place of Ki) ([1]; Table 1): inhibitor
Compound: disodium 2-farnesylthioethyl phosphate
